Columns and labels:
Candida albicans enzymes = settings: cited from earlier work
[1] = tested on: polarized Caco-2 monolayer; experiment: Real-time PCR of HBD-2, IL-1β, IL-8/CXCL8 genes in Caco-2 cells; type: cell-based, human
Procedure: Caco-2 cells were seeded into the wells of 24-well plates in the complete RPMI-1640 medium containing 10% FBS and 1X antibiotic-antimycotic solution and kept in a humidified CO2-incubator (5% CO2, 37 °C). Cells were grown for 18 days and the medium was changed twice a week. The presence of a cell monolayer was checked using an inverted microscope and the plates were incubated one more week for complete polarization of Caco-2 cells. Caco-2 cells were stimulated by adding fresh complete RPMI-1640 medium without antibiotics, containing Psd1 at the final concentration of 2 µM or Candida albicans at the concentration of 5 × 10^4 cells/mL (1.3 × 10^4 cells per cm^2 of Caco-2 monolayer) or yeast cells together with the pea defensin at the same concentration. RPMI-1640 medium only was used in control wells.
Total RNA was isolated from Caco-2 cells using TRIzol reagent (Invitrogen) according to the manufacturer’s instructions after 4 or 24 h of stimulation and cell washing by RPMI-1640 medium. The quality and quantity of total RNA were determined by the A260/280 ratio using NanoPhotometer NP80 (Implen GmbH, München, Germany) as well as agarose gel electrophoresis (Supporting Materials, Figure S3). RNase inhibitor (Evrogen, Moscow, Russia) was added to the final preparation of total RNA. Two μg of total RNA was taken to synthesize the cDNA using MINT-Universal cDNA synthesis kit (Evrogen, Moscow, Russia) containing MMLV-based reverse transcriptase following the manufacturer’s instructions.
Real-time PCR was performed on CFX Opus 96 Real-Time PCR System (Bio-Rad, Hercules, CA, USA) using the SYBR Green PCR kit (Evrogen, Moscow, Russia) and target-specific primers (Supporting Materials, Table S4). The internal control housekeeping gene GAPDH was amplified simultaneously in separate reaction tubes [36]. The reaction conditions were set as follows: initial heating at 95 °C for 3 min, followed by 50 cycles of reactions at 95 °C (15 s), followed by 62 °C (20 s), and finally 72 °C (30 s). Melt curves were obtained using a temperature increment from 50 to 95 °C at 0.5 °C/5 s (Supporting Materials, Figure S4). The threshold cycle number (CT) of reactions was determined using the CFX Maestro 2.2 (version 5.2.008.0222) software (Bio-Rad, Hercules, CA, USA). The efficiency of PCR was monitored by using LinRegPCR online tool (https://www.gear-genomics.com/rdml-tools/). The relative expression of the genes of interest was calculated by normalization to GAPDH using the standard 2^−ΔΔCT method. Unstimulated Caco-2 cells after 4 and 24 h of incubation were used as controls. Experiments were performed twice in six technical replications. Gene expression in controls and experimental samples was compared with a t-test using GraphPad Prism v.8.0.1. The p-values ≤ 0.05 were considered significant.

Psd1: pea defensin from Pisum sativum (UNIPROT P81929), recombinant peptide overexpressed in Escherichia coli (KTCEHLADTYRGVCFTNASCDDHCKNKAHLISGTCHNWKCFCTQNC; UniProt P81929 1-46, looked up)
stability to proteolysis by Candida albicans enzymes (Candida albicans enzymes): stable to proteolysis by Candida albicans enzymes | expression of HBD-2, IL-1β and IL-8/CXCL8 genes ([1]; 2 μM Psd1, 24 h): Immunostimulatory action of Psd1 was observable | expression of HBD-2, IL-1β and IL-8/CXCL8 genes ([1]; 2 μM Psd1 alone, 4 h, relative to untreated Caco-2): upregulated all three genes | expression of HBD-2, IL-1β and IL-8/CXCL8 genes ([1]; 2 μM Psd1 with C. albicans vs C. albicans alone, 24 h, p < 0.05): significantly reduced the inhibitory effect of pathogenic fungus | expression of HBD-2, IL-1β and IL-8/CXCL8 genes ([1]; 2 μM Psd1 with C. albicans, 4 h): more pronounced activation of the protective immune response
